Measured values reported in patent publication US11608335B2, “Somatostatin modulators and uses thereof” (CRINETICS PHARMACEUTICALS, INC., priority 2018, dated 2023).
pEC50: −log10 of the molar value.

Molecular target: human somatostatin receptor subtype 5 (Homo sapiens, UniProt P35346)
Test: cAMP assay for SST5R (inhibition of cAMP via human SST5 receptor)

Sequence of human somatostatin receptor subtype 5 (P35346 whole entry): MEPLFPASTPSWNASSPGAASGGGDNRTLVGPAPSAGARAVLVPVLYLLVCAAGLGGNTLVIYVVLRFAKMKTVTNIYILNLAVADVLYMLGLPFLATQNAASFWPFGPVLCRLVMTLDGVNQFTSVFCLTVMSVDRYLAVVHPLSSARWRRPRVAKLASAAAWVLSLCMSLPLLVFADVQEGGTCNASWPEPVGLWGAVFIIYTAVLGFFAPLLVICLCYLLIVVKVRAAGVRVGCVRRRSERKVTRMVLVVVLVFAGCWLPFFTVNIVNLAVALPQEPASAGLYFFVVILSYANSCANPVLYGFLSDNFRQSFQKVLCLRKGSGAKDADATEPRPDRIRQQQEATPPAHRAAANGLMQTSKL

Structure (SMILES)	pEC50
CC1(N)CCN(c2c(-c3ccc4[nH]ccc4c3)cncc2-c2nc3cccc(F)c3[nH]2)C1 (stereo not drawn) [Compound 2-30, 1-[3-(4-fluoro-1H-1,3-benzodiazol-2-yl)-5-(1H-indol-5-yl)pyridin-4-yl]-3-methylpyrrolidin-3-amine]	6.00 to 7.00
Cc1cc(-c2cncc(-c3nc4cccc(F)c4[nH]3)c2N2CC[C@H](N)C2)cc(N)n1 [Compound 2-130, 4-[(3S)-3-aminopyrrolidin-1-yl]-5-(4-fluoro-1H-1,3-benzodiazol-2-yl)-6′-methyl-[3,4′-bipyridin]-2′-amine]	6.00 to 7.00
N#Cc1cccc(-c2cncc(-c3nc4c(F)cccc4[nH]3)c2N2C[C@@H](N)[C@H](O)C2)c1 (racemic) [Compound 2-81, 3-{4-[trans-3-amino-4-hydroxypyrrolidin-1-yl]-5-(4-fluoro-1H-1,3-benzodiazol-2-yl)pyridin-3-yl}benzonitrile]	7.00 to 8.00
CC1(N)CCN(c2c(-c3cccc(N4CCOC4=O)c3)cncc2-c2nc3cccc(F)c3[nH]2)C1 (stereo not drawn) [Compound 2-17, 3-{3-[4-(3-amino-3-methylpyrrolidin-1-yl)-5-(4-fluoro-1H-1,3-benzodiazol-2-yl)pyridin-3-yl]phenyl}-1,3-oxazolidin-2-one]	7.00 to 8.00
CC1(N)CCN(c2c(-c3ccnc(N)c3)cncc2-c2nc3cccc(F)c3[nH]2)C1 (stereo not drawn) [Compound 2-15, 4-(3-amino-3-methylpyrrolidin-1-yl)-5-(4-fluoro-1H-1,3-benzodiazol-2-yl)-[3,4′-bipyridin]-2′-amine]	7.00 to 8.00
N#Cc1cc(F)cc(-c2cncc(-c3nc4cccc(F)c4[nH]3)c2N2C[C@@H](N)C[C@@H]2CO)c1 [Compound 2-66, 3-{4-[(2R,4S)-4-amino-2-(hydroxymethyl)pyrrolidin-1-yl]-5-(4-fluoro-1H-1,3-benzodiazol-2-yl)pyridin-3-yl}-5-fluorobenzonitrile]	6.00 to 7.00
COc1ccc2nc(-c3cncc(-c4cc(F)cc(Cl)c4)c3N3CC[C@H](N)C3)[nH]c2c1 [Compound 2-104, (3S)-1-[3-(3-chloro-5-fluorophenyl)-5-(5-methoxy-1H-1,3-benzodiazol-2-yl)pyridin-4-yl]pyrrolidin-3-amine]	7.00 to 8.00
COc1ccc2[nH]c(-c3cncc(-c4cc(C)cc(F)c4)c3N3CC(CN)C3)nc2c1 [Compound 1-12, 1-{1-[3-(3-fluoro-5-methylphenyl)-5-(5-methoxy-1H-1,3-benzodiazol-2-yl)pyridin-4-yl]azetidin-3-yl}methanamine]	6.00 to 7.00
NCC1CN(c2c(-c3nc4cc(F)cc(F)c4[nH]3)cncc2-c2cccc3ccccc23)C1 [Compound 1-52, 1-{1-[3-(4,6-difluoro-1H-1,3-benzodiazol-2-yl)-5-(naphthalen-1-yl)pyridin-4-yl]azetidin-3-yl}methanamine]	7.00 to 8.00
Cc1cc(F)cc(-c2cncc(-c3nc4cc(C#N)cc(F)c4[nH]3)c2N2CC(CN)C2)c1 [Compound 1-16, 2-{4-[3-(aminomethyl)azetidin-1-yl]-5-(3-fluoro-5-methylphenyl)pyridin-3-yl}-4-fluoro-1H-1,3-benzodiazole-6-carbonitrile]	6.00 to 7.00
N#Cc1cc(F)cc(-c2cncc(-c3nc4cccc(F)c4[nH]3)c2N2C[C@@H](N)C[C@H]2CO)c1 [Compound 2-88, 3-{4-[(2S,4S)-4-amino-2-(hydroxymethyl)pyrrolidin-1-yl]-5-(4-fluoro-1H-1,3-benzodiazol-2-yl)pyridin-3-yl}-5-fluorobenzonitrile]	< 6.00
NCC1CN(c2c(-c3nc4cc(F)cc(F)c4[nH]3)cncc2-c2cccc(Cl)c2F)C1 [Compound 1-57, 1-{1-[3-(3-chloro-2-fluorophenyl)-5-(4,6-difluoro-1H-1,3-benzodiazol-2-yl)pyridin-4-yl]azetidin-3-yl}methanamine]	7.00 to 8.00
N[C@H]1CCN(c2c(-c3ccc4c(c3)OCC4)cncc2-c2nc3cccc(F)c3[nH]2)C1 [Compound 2-59, (3S)-1-[3-(2,3-dihydro-1-benzofuran-6-yl)-5-(4-fluoro-1H-1,3-benzodiazol-2-yl)pyridin-4-yl]pyrrolidin-3-amine]	7.00 to 8.00
N#CCn1c(-c2cncc(-c3cc(F)cc(C#N)c3)c2N2CC[C@H](N)C2)nc2ccccc21 [Compound 2-113, 3-{4-[(3S)-3-aminopyrrolidin-1-yl]-5-[1-(cyanomethyl)-1H-1,3-benzodiazol-2-yl]pyridin-3-yl}-5-fluorobenzonitrile]	6.00 to 7.00
N#Cc1cc(-c2cncc(-c3nc4c(F)ccc(F)c4[nH]3)c2N2CC[C@H](N)C2)ccc1C(F)(F)F [Compound 2-48, 5-{4-[(3S)-3-aminopyrrolidin-1-yl]-5-(4,7-difluoro-1H-1,3-benzodiazol-2-yl)pyridin-3-yl}-2-(trifluoromethyl)benzonitrile]	7.00 to 8.00
NCC1CN(c2c(-c3cc(Cl)cc(C(F)(F)F)c3)cncc2-c2nc3cc(F)cc(F)c3[nH]2)C1 [Compound 1-40, 1-(1-{3-[3-chloro-5-(trifluoromethyl)phenyl]-5-(4,6-difluoro-1H-1,3-benzodiazol-2-yl)pyridin-4-yl}azetidin-3-yl)methanamine]	7.00 to 8.00
Cn1c(-c2cncc(-c3cc(F)cc(C#N)c3)c2N2CC[C@H](N)C2)nc2cccc(Cl)c21 [Compound 2-117, 3-{4-[(3S)-3-aminopyrrolidin-1-yl]-5-(7-chloro-1-methyl-1H-1,3-benzodiazol-2-yl)pyridin-3-yl}-5-fluorobenzonitrile]	7.00 to 8.00
CN(C)C(=O)c1cccc(-c2cncc(-c3nc4cccc(F)c4[nH]3)c2N2CCC(C)(N)C2)c1 (stereo not drawn) [Compound 2-31, 3-[4-(3-amino-3-methylpyrrolidin-1-yl)-5-(4-fluoro-1H-1,3-benzodiazol-2-yl)pyridin-3-yl]-N,N-dimethylbenzamide]	6.00 to 7.00
CC(N)C1CN(c2c(-c3nc4cc(F)cc(F)c4[nH]3)cncc2-c2cccc(F)c2O)C1 (stereo not drawn) [Compound 1-75, 2-{4-[3-(1-aminoethyl)azetidin-1-yl]-5-(4,6-difluoro-1H-1,3-benzodiazol-2-yl)pyridin-3-yl}-6-fluorophenol]	7.00 to 8.00
Cc1cc(F)cc(-c2cncc(-c3nc4cc(C#N)ccc4[nH]3)c2N2CC(CN)C2)c1 [Compound 1-8, 2-{4-[3-(aminomethyl)azetidin-1-yl]-5-(3-fluoro-5-methylphenyl)pyridin-3-yl}-1H-1,3-benzodiazole-5-carbonitrile]	6.00 to 7.00

More lines, now with the values ahead:

pEC50	Structure (SMILES)
7.00 to 8.00	Cc1cccc2nc(-c3cncc(-c4cc(F)cc(C#N)c4)c3N3CC[C@](N)(CO)C3)[nH]c12 [Compound 2-136, 3-{4-[(3R)-3-amino-3-(hydroxymethyl)pyrrolidin-1-yl]-5-(4-methyl-1H-1,3-benzodiazol-2-yl)pyridin-3-yl}-5-fluorobenzonitrile]
> 8.00	COc1cc(F)cc(-c2cncc(-c3nc4cc(F)cc(F)c4[nH]3)c2N2CC(CN)C2)c1 [Compound 1-58, 1-{1-[3-(4,6-difluoro-1H-1,3-benzodiazol-2-yl)-5-(3-fluoro-5-methoxyphenyl)pyridin-4-yl]azetidin-3-yl}methanamine]
7.00 to 8.00	Cc1cccc2nc(-c3cncc(-c4ccnc(C(N)=O)c4)c3N3CCC(C)(N)C3)[nH]c12 (stereo not drawn) [Compound 2-105, 4-(3-amino-3-methylpyrrolidin-1-yl)-5-(4-methyl-1H-1,3-benzodiazol-2-yl)-[3,4′-bipyridine]-2′-carboxamide]
7.00 to 8.00	N[C@H]1CCN(c2c(-c3cc(O)cc(F)c3)cncc2-c2nc3cccc(F)c3[nH]2)C1 [Compound 2-25, 3-{4-[(3S)-3-aminopyrrolidin-1-yl]-5-(4-fluoro-1H-1,3-benzodiazol-2-yl)pyridin-3-yl}-5-fluorophenol]
> 8.00	Cc1cccc(-c2cncc(-c3nc4cc(F)cc(F)c4[nH]3)c2N2CC(C(C)N)C2)c1F (stereo not drawn) [Compound 1-76, 1-{1-[3-(4,6-difluoro-1H-1,3-benzodiazol-2-yl)-5-(2-fluoro-3-methylphenyl)pyridin-4-yl]azetidin-3-yl}ethan-1-amine]
7.00 to 8.00	Cc1cccc2[nH]c(-c3cncc(-c4cc(F)cc(C#N)c4)c3N3CC[C@H](N)C3)cc12 [Compound 2-129, 3-{4-[(3S)-3-aminopyrrolidin-1-yl]-5-(4-methyl-1H-indol-2-yl)pyridin-3-yl}-5-fluorobenzonitrile]
> 8.00	Cc1cccc2c1nc(-c1cncc(-c3ccnc(C#N)c3)c1N1CC[C@](C)(N)C1)n2C [Compound 2-152, 4-[(3S)-3-amino-3-methylpyrrolidin-1-yl]-5-(1,4-dimethyl-1H-1,3-benzodiazol-2-yl)-[3,4′-bipyridine]-2′-carbonitrile]
> 8.00	NCC1CN(c2c(-c3cc(F)cc(F)c3)cncc2-c2nc3cc(F)cc(F)c3[nH]2)C1 [Compound 1-21, 1-{1-[3-(4,6-difluoro-1H-1,3-benzodiazol-2-yl)-5-(3,5-difluorophenyl)pyridin-4-yl]azetidin-3-yl}methanamine]
> 8.00	N#Cc1cccc(-c2cncc(-c3nc4c(F)cc(F)cc4[nH]3)c2N2CC(CN)C2)c1 [Compound 1-54, 3-{4-[3-(aminomethyl)azetidin-1-yl]-5-(4,6-difluoro-1H-1,3-benzodiazol-2-yl)pyridin-3-yl}benzonitrile]
> 8.00	Cc1cccc(-c2cncc(-c3nc4c(F)cc(F)cc4[nH]3)c2N2CC(CN)C2)c1 [Compound 1-29, 1-{1-[3-(4,6-difluoro-1H-1,3-benzodiazol-2-yl)-5-(3-methylphenyl)pyridin-4-yl]azetidin-3-yl}methanamine]
> 8.00	Cc1cccc2c1nc(-c1cncc(-c3cc(F)cc(C#N)c3)c1N1CC[C@H](N)C1)n2C [Compound 2-114, 3-{4-[(3S)-3-aminopyrrolidin-1-yl]-5-(1,4-dimethyl-1H-1,3-benzodiazol-2-yl)pyridin-3-yl}-5-fluorobenzonitrile]
> 8.00	Cc1cc(Cl)cc(-c2cncc(-c3nc4cc(F)cc(F)c4[nH]3)c2N2CC(CN)C2)c1 [Compound 1-20, 1-{1-[3-(3-chloro-5-methylphenyl)-5-(4,6-difluoro-1H-1,3-benzodiazol-2-yl)pyridin-4-yl]azetidin-3-yl}methanamine]
> 8.00	CCc1cccc2[nH]c(-c3cncc(-c4cccc(C#N)c4)c3N3CC[C@H](N)C3)nc12 [Compound 2-100, 3-{4-[(3S)-3-aminopyrrolidin-1-yl]-5-(4-ethyl-1H-1,3-benzodiazol-2-yl)pyridin-3-yl}benzonitrile]
